{"source": "paper PMC5617480", "about": "(Oncotarget, 2017)", "test_system": "KM mice", "test": "Acute toxicity studies, single dose", "type": "in vivo", "conditions": "for Death (%) on day 14 / No. of death mice, Five-fourteen day / No. of death mice, Four day / No. of death mice, One day / No. of death mice, Three day / No. of death mice, Two day / Total death: 10 animals", "method": "We further evaluated the safety of chiral platinum(II) complex 6 by using KM mice via the tail vein injection with a single dose of complex 6 at 15, 12, 9.6 and 7.8 mg/kg, respectively. After 14 days, the mortality rate of mice was calculated (Supplementary Figure 31 and Supplementary Table 10). […] However, at higher doses (>7.8 mg/kg), death of mice occurred. Thus, the doses of 7.8 mg/kg of complex 6 were employed in the further in vivo experiment.", "key": {"[1]": {"conditions": "single tail vein dose 7.8 mg/kg"}, "[2]": {"conditions": "single tail vein dose 9.6 mg/kg"}}}
{"substance": "cis-[PtCl2(S-(–)-FOA)] [complex 6]", "values": [{"measurement": "Death (%) on day 14", "setting": "[1]", "value": 0, "unit": "%"}, {"measurement": "No. of death mice, Five-fourteen day", "setting": "[1]", "value": 0}, {"measurement": "No. of death mice, Four day", "setting": "[1]", "value": 0}, {"measurement": "No. of death mice, One day", "setting": "[1]", "value": 0}, {"measurement": "No. of death mice, Three day", "setting": "[1]", "value": 0}, {"measurement": "No. of death mice, Two day", "setting": "[1]", "value": 0}, {"measurement": "Total death", "setting": "[1]", "value": 0}, {"measurement": "acute toxicity finding", "setting": "single tail vein dose 7.8 mg/kg, 14 days", "value": "did not kill any animal or cause any abnormality"}, {"measurement": "Death (%) on day 14", "setting": "[2]", "value": 10, "unit": "%"}, {"measurement": "No. of death mice, Five-fourteen day", "setting": "[2]", "value": 0}, {"measurement": "No. of death mice, Four day", "setting": "[2]", "value": 0}, {"measurement": "No. of death mice, One day", "setting": "[2]", "value": 0}, {"measurement": "No. of death mice, Three day", "setting": "[2]", "value": 0}, {"measurement": "No. of death mice, Two day", "setting": "[2]", "value": 1}, {"measurement": "Total death", "setting": "[2]", "value": 1}, {"measurement": "Death (%) on day 14", "setting": "single tail vein dose 12 mg/kg", "value": 40, "unit": "%"}, {"measurement": "No. of death mice, Five-fourteen day", "setting": "single tail vein dose 12 mg/kg", "value": 0}, {"measurement": "No. of death mice, Four day", "setting": "single tail vein dose 12 mg/kg", "value": 0}, {"measurement": "No. of death mice, One day", "setting": "single tail vein dose 12 mg/kg", "value": 3}, {"measurement": "No. of death mice, Three day", "setting": "single tail vein dose 12 mg/kg", "value": 1}, {"measurement": "No. of death mice, Two day", "setting": "single tail vein dose 12 mg/kg", "value": 1}, {"measurement": "Death (%) on day 14", "setting": "single tail vein dose 15 mg/kg", "value": 90, "unit": "%"}, {"measurement": "No. of death mice, Five-fourteen day", "setting": "single tail vein dose 15 mg/kg", "value": 0}, {"measurement": "No. of death mice, Four day", "setting": "single tail vein dose 15 mg/kg", "value": 0}, {"measurement": "No. of death mice, One day", "setting": "single tail vein dose 15 mg/kg", "value": 7}, {"measurement": "No. of death mice, Three day", "setting": "single tail vein dose 15 mg/kg", "value": 1}, {"measurement": "No. of death mice, Two day", "setting": "single tail vein dose 15 mg/kg", "value": 1}, {"measurement": "Total death", "setting": "single tail vein dose 15 mg/kg", "value": 9}]}
